Assay results taken from patent publication US20040248099A1, “Use of intermediate -conductance potassium channels and modulators for diagnosing and treating diseases having disturbed keratinocyte activity” (priority 2000, published 2004).
“Also recorded” adds a separate entry of the source.

Key:
[1] = system: HaCaT keratinocytes; test: Proliferation of subconfluent HaCaT keratinocytes, number of cells per well determined daily; type: cell-based, human; settings: n=3
Experimental: In order to investigate the effect of the hIK1 channel inhibitors clotrimazole and charybdotoxin, either 10 μM clotrimazole, 200 nM charybdotoxin (ChTx) or 1 mM 1-EBIO were/was added to cells which were growing subconfluently and the number of cells per well was determined daily.

[2] = system: HaCaT keratinocytes; test: Patch-clamp recording of the membrane potential of HaCaT keratinocytes (current clamp; ATP-induced response); type: cell-based, human; settings: for blockers leading to a comparable depolarization on a plateau during treatment with ATP: other K+ channel blockers tested
Experimental: In order to identify an ion channel which is substantially involved in the transduction of wound healing-specific signals, HaCaT cells were investigated electrophysiologically. The HaCaT keratinocytes were propagated in DEM containing 10% FCS (Gibco BRL) to which antibiotics (penicillin/streptomycin, 100 U/ml) had been added. […] The patch pipettes were prepared from small borosilicate tubes on a horizontal pulling device (DMZ, Zeitz) using the two-step pulling method. […] The resistance of these patch pipettes was 5-8 GΩ in the bath. After a seal in the GΩ range had been produced (typically 1.5-2 GΩ) the amplifier was switched to current clamp mode. […] The electrophysiological signals were recorded, amplified and digitalized using an Axopatch 200 amplifier in combination with a TL-1 Labmaster Interface and AXOTAPE software (Axon Instruments). The statistical analysis (one-way ANOVA with Bonferri post-test comparison) was carried out using Graphpad prism 2.0. […]
The inflow of liquid was gravity-dependent and was controlled by means of magnetic valves. Outflow was effected by applying a negative pressure using a vacuum pump. Substances were added, while observing visually, directly into the keratinocytes under investigation using a remotely controlled, magnet-controlled Y tube system (diameter of the efflux tube: 100 μm).
The electrophysiological recordings were carried out, using perforated patches, on HaCaT cells which had grown into a confluent monolayer.

[3] = system: HaCaT cells; test: Keratinocyte differentiation by immunostaining with anti-K10 antibody; type: cell-based, human; settings: 1-EBIO 1 mM, 3 days
[4] = system: HaCaT cells; test: Immunoblotting of the differentiation markers involucrin, keratin 1 and keratin 10; type: cell-based, human; settings: 1-EBIO 1, 100, 1000 μM, 4 days; dose-dependent
Experimental: For this, 5×10^5 HaCaT cells per well were grown in medium in a 6-well plate. […] 1% DMSO in medium was used as the solvent control (lane ‘C’). The cells were incubated for 4 days, with the medium being replaced daily. After 4 days, the protein concentration in the cell lysates was determined (BCA Assay, Pierce). Immunoblotting was then used to compare equal quantities of protein from the different lysates with the keratinocyte differentiation markers involucrin (1:500, Sigma) and keratin 1 and 10 (1:250, Progen) (FIG. 6).

[5] = system: HaCaT keratinocytes; test: BrDU incorporation cell proliferation ELISA in HaCaT keratinocytes
Experimental: The influence of activators of IK1 on proliferation was investigated using 1-EBIO and zolxazolamine (see above). Firstly, the influence of different concentrations of 1-EBIO on the growth rate of HaCaT cells was measured in the presence and in the absence of serum. For this purpose, 1×10^4 HaCaT cells per well were cultured in keratinocyte growth medium (KGM) for 5 days in a 96-well plate, in order to synchronize the cell cycle, with this being followed by a two-day incubation in the presence of different concentrations of 1-EBIO in KGM (see FIGS. 7 and 8) in the absence (FIG. 7) and in the presence (FIG. 8) of serum. […] 1% DMSO in KGM served as the solvent control. Cell proliferation was measured by the incorporation of bromodideoxyuridine (BrDU) while cell division was measured in accordance with the manufacturer's instructions (‘The Cell Proliferation ELISA, BrDU, Roche). The incorporation of BrDU was quantified by determining the absorption at 450 nm. In FIGS. 7 and 8, the absorption (A[450 nm]) is in each case plotted on the Y axis as a measure of the proliferation rate. Greater absorption reflects greater proliferation.

Compound: Clc1ccccc1C(c1ccccc1)(c1ccccc1)n1ccnc1 [clotrimazole]
- influence on proliferation ([1]; clotrimazole 10 μM): complete inhibition
- influence on proliferation ([1]; clotrimazole 10 μM, listed as Clotrimazole): inhibited proliferation completely
- effect on the ATP-induced electrophysiological response, compared with 100 nM ChTx ([2]; clotrimazole 1 μM prior to ATP, n=3): The same effect

Compound: [Ba+2] [Ba^2+]
- blockers leading to a comparable depolarization on a plateau during treatment with ATP [2]: None

Compound: CCn1c(=O)[nH]c2ccccc21 [1-EBIO, 1-ethyl-2-benzimidazolinone]
- proportion of K10-stained (partially differentiated) cells versus control cells [3]: signficantly reduced
- effect on differentiation (involucrin, K1, K10 protein) [4]: inhibit differentiation
- influence on proliferation ([1]; 1-EBIO 1 mM): inhibited proliferation completely; also recorded: complete inhibition
- cell morphology and apoptosis under activator [5]: no sign of apoptosis
- concentration of strongest inhibition of serum-induced proliferation ([5]; 10% FCS): 1 mM
- dose dependence of the inhibition of serum-induced proliferation ([5]; 10% FCS): dose-dependent
- effect on serum-induced proliferation (BrDU incorporation) ([5]; 10% FCS, different concentrations of 1-EBIO, two-day incubation): inhibit serum-induced proliferation
- stimulation of cell proliferation (BrDU incorporation) ([5]; absence of serum, different concentrations of 1-EBIO, two-day incubation): not on their own able to stimulate cell proliferation
- membrane potential (rapid and powerful hyperpolarization to) ([2]; 1-EBIO 1 mM, n=3): −83±3 mV
- transient depolarization on adding ATP, compared with controlled conditions ([2]; ATP 10 μM in the presence of 1-EBIO 1 mM): much stronger

Compound: CC[N+](CC)(CC)CC [TEA]
- blockers leading to a comparable depolarization on a plateau during treatment with ATP [2]: None

Compound: CCn1c(=O)[nH]c2cc(Cl)c(Cl)cc21 [DCEBIO, 5,6-dichloro-1-ethyl-1,3-dihydro-2H-benzimidazol-2-one]
- concentration for the same electrophysiological effect as 1-EBIO, times less concentrated ([2]; HaCaT cells): 300-1000 times

Compound: NCCc1c[nH]cn1 [histamine]
- electrophysiological response compared with ATP ([2]; histamine 100 μM, n=4): practically identical quantitatively and kinetically

Compound: CCCCCCCCCCCCCC(=O)O[C@@H]1[C@@H](C)[C@@]2(O)[C@@H](C=C(CO)C[C@]3(O)C(=O)C(C)=C[C@@H]23)[C@@H]2C(C)(C)[C@]12OC(C)=O [PMA]
- influence on the effect of ATP [2]: no influence

Compound: Nc1ncnc2c1ncn2[C@@H]1O[C@H](COP(=O)(O)OP(=O)(O)OP(=O)(O)O)[C@@H](O)[C@H]1O [ATP]
- reversibility of the hyperpolarization ([2]; 1 μM ATP, n=9): could be reversed rapidly by washing out
- hyperpolarization ([2]; 10 μM ATP, n=28): 30±2 mV
- change in the membrane potential on perfusion ([2]; ATP 1-1000 μM, transient depolarization followed by long-lasting hyperpolarization): biphasic change in the membrane potential
- duration of the strong hyperpolarization after addition ([2]; ATP concentrations of ≧10 μM): at least 5 min

Compound: calphostin C
- effect on the ATP-mediated change in voltage ([2]; calphostin C 50 nM): no effect

Compound: charybdotoxin (QFTNVSCTTSKECWSVCQRLHNTSRGKCMNKKCRCYS)
- influence on proliferation ([1]; charybdotoxin 200 nM): retarded proliferation; also recorded: growth which was only retarded
- effect on the established ATP-mediated hyperpolarization ([2]; ChTx 100 nM added after ATP, ATP still present, n=2): complete reversal of the hyperpolarization
- effect on the ATP-induced electrophysiological response ([2]; ChTx 100 nM prior to ATP, n=4, potential stayed on a depolarized plateau): completely prevented repolarization
- effect on the ATP-induced electrophysiological response ([2]; ChTx 10-100 nM prior to ATP, n=15): retarded repolarization of the rapid depolarization and prevented hyperpolarization
- inhibition of the ATP-mediated hyperpolarization ([2]; charybdotoxin at various concentrations prior to ATP): dose-dependent inhibition
